Source: patent US6596728B1, “Substituted 1,3-diaryl-2-pyrid-2-yl-3-(pyrid-2-ylamino)propanol derivatives, process for their preparation, pharmaceuticals comprising these compounds and their use” (Aventis Pharma Deutschland GmbH, priority 1998, dated 2003)

Biological target: T1, intestinal bile acid transportation system (Na+-dependent) in brush border membrane vesicles of the ileum (Oryctolagus cuniculus, UniProt Q28727)
T1 construct: Preparation of Brush Border Membrane Vesicles from the Ileum of Rabbits; from tissue; host or cells: brush border membrane vesicles from terminal ileum of male New Zealand rabbits
T1 sequence (Q28727 1-347): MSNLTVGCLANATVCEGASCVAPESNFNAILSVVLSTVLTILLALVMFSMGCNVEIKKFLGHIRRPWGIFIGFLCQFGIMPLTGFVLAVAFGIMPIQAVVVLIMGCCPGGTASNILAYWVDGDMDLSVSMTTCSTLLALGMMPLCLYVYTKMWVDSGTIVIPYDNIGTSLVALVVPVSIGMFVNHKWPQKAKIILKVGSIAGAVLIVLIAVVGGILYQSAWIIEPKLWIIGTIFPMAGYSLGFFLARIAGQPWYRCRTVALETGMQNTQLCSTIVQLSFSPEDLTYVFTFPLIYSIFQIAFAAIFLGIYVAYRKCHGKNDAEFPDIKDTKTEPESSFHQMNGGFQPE
Test: Inhibition of Na+-dependent [3H]-taurocholate uptake in brush border membrane vesicles of the ileum of rabbits
Assay type: biochemical
Details: quotient of the IC50Na of the reference substance taurochenodeoxycholate (TCDC) and of the test substance, 50 μM taurocholate, rabbit ileum vesicles
Protocol: Biological testing of the compounds according to the present invention was carried out by determining the inhibition of [^3H]-taurocholate uptake in brush border membrane vesicles of the ileum of rabbits. The inhibition test was carried out as follows:
1. Preparation of Brush Border Membrane Vesicles from the Ileum of Rabbits
Brush border membrane vesicles from the intestinal cells of the small intestine were prepared by the so-called Mg^2+ precipitation method. Male New Zealand rabbits (2 to 2.5 kg body weight) were sacrificed by intravenous injection of 0.5 ml T61®, an aqueous solution of 2.5 mg tetracaine HCl, […] embutramide and 25 mg mebezonium iodide. The small intestine was removed and rinsed with ice-cold physiological saline solution. The terminal 7/10 of the small intestine (measured in the oral-rectal direction, i.e., the terminal ileum, which contains the active Na^+-dependent bile acid transportation system) was used for preparation of the brush border membrane vesicles. The intestines were frozen in plastic bags under nitrogen at −80° C. For preparation of the membrane vesicles, the frozen intestines were thawed at 30° C. in a water bath. The mucosa was scraped off and suspended in 60 ml of ice-cold 12 mM TRIS/HCl buffer (pH 7.1)/300 mM mannitol, 5 mM EGTA/10 mg/l of phenylmethylsulfonyl fluoride/1 mg/l of trypsin inhibitor from soybeans (32 U/mg)/0.5 mg/l of trypsin inhibitor from bovine lung (193 U/mg)/5 mg/l of bacitracin. After dilution to 300 ml with ice-cold distilled water, the mixture was homogenized with an Ultraturrax (18-rod, IKA Werk Staufen, Germany) for 3 minutes at 75% of the maximum output by cooling with ice. After addition of 3 ml of 1 M MgCl2 solution (final concentration 10 mM), the mixture was allowed to stand for exactly 1 minute at 0° C. The cell membranes aggregate by addition of Mg^2+ and precipitate, with the exception of the brush border membranes. After centrifugation at 3000×g (5000 rpm, SS-34 rotor) for 15 minutes, the precipitate was discarded land the supernatant, which contains the brush border membranes, was centrifuged at 48000×g (20000 rpm, SS-34 rotor) for 30 minutes. The supernatant was discarded, and the precipitate was rehomogenized in 60 ml of 12 mM TRIS/HCl buffer (pH 7.1)/60 mM mannitol, 5 mM EGTA with a Potter Elvejhem homogenizer (Braun, Melsungen, 900 rpm, 10 strokes). After addition of 0.1 ml of 1 M MgCl2 solution and incubation for 15 minutes at 0° C., centrifugation was again carried out at 3000×g for 15 minutes. The supernatant was then centrifuged again at 48000×x g (20000 rpm, SS-34 rotor) for 30 minutes. The precipitate was taken up in 30 ml of 10 mM TRIS/HEPES buffer (pH 7.4)/300 mM mannitol and resuspended homogeneously by 20 strokes in a Potter Elvejhem homogenizer at 1000 rpm. After centrifugation at 48000×g (20000 rpm, SS-34 rotor) for 30 minutes, the precipitate was taken up in 0.5 to 2 ml of TRIS/HEPES buffer (pH 7.4)/280 mM mannitol (final concentration 20 mg/ml) and resuspended with the aid of a Tuberculin syringe with a 27-gauge needle. The vesicles were either used for transportation investigations directly after preparation or stored at −196° C. in 4 mg portions in liquid nitrogen.
2. Inhibition of the Na^+-dependent [^3H]taurocholate Uptake in Brush Border Membrane Vesicles of the Ileum
The uptake of substrates in the brush border membrane vesicles described above was determined by means of the so-called membrane filtration technique. 10 μl of the vesicle suspension (100 μg of protein) were pipetted as drops onto the wall of a polystyrene incubation tube (11×70 mm) which contained the incubation medium with the corresponding ligands (90 μl). […]

Structure (SMILES)	IC50Na-TCDC (μmol) / IC50Na-compound (μmol)
C#CCCC(=O)Nc1ccccc1[C@@H](Nc1ccccn1)[C@H](c1ccccn1)[C@H](O)c1ccccc1 [Example 31]	1.13
COc1ccc(CCC(=O)Nc2ccccc2[C@@H](Nc2ccccn2)[C@H](c2ccccn2)[C@H](O)c2ccccc2)cc1OC [Example 35]	0.36
CN(CC(=O)Nc1ccccc1[C@@H](Nc1ccccn1)[C@H](c1ccccn1)[C@H](O)c1ccccc1)C(=O)OC(C)(C)C [Example 49]	0.86
CCOCC(=O)Nc1ccccc1[C@@H](Nc1ccccn1)[C@H](c1ccccn1)[C@H](O)c1ccccc1 [Example 50]	0.67
COc1cc(/C=C/C(=O)Nc2ccccc2[C@@H](Nc2ccccn2)[C@H](c2ccccn2)[C@H](O)c2ccccc2)ccc1O [Example 52]	1.11
CCCCCC#CC(=O)Nc1ccccc1[C@@H](Nc1ccccn1)[C@H](c1ccccn1)[C@H](O)c1ccccc1 [Example 60]	0.62
N#CC1(C(=O)Nc2ccccc2[C@@H](Nc2ccccn2)[C@H](c2ccccn2)[C@H](O)c2ccccc2)CC1 [Example 62]	0.99
CC(C)(C)c1ccc(S(=O)(=O)Nc2ccccc2C(Nc2ccccn2)C(c2ccccn2)C(O)c2ccccc2)cc1 (centres unmarked) [Example 66]	0.93
CC1(C)[C@@H]2CCC1(CS(=O)(=O)Nc1ccccc1C(Nc1ccccn1)C(c1ccccn1)C(O)c1ccccc1)C(=O)C2 (some centres unmarked) [Example 69]	1.00
O=S(=O)(Nc1ccccc1C(Nc1ccccn1)C(c1ccccn1)C(O)c1ccccc1)c1ccc(F)cc1 (centres unmarked) [Example 73]	0.92
O=S(=O)(Nc1ccccc1C(Nc1ccccn1)C(c1ccccn1)C(O)c1ccccc1)c1cc(Cl)cc(Cl)c1O (centres unmarked) [Example 74]	0.70
CC(C)S(=O)(=O)Nc1ccccc1C(Nc1ccccn1)C(c1ccccn1)C(O)c1ccccc1 (centres unmarked) [Example 77]	0.22
O=S(=O)(Nc1ccccc1C(Nc1ccccn1)C(c1ccccn1)C(O)c1ccccc1)c1cc(C(F)(F)F)cc(C(F)(F)F)c1 (centres unmarked) [Example 78]	0.27
O=S(=O)(Nc1ccccc1C(Nc1ccccn1)C(c1ccccn1)C(O)c1ccccc1)c1ccc(Cl)s1 (centres unmarked) [Example 82]	0.79
Cc1c(C)c(S(=O)(=O)Nc2ccccc2C(Nc2ccccn2)C(c2ccccn2)C(O)c2ccccc2)c(C)c2c1OC(C)(C)CC2 (centres unmarked) [Example 83]	0.24
CCCCOc1ccc(S(=O)(=O)Nc2ccccc2C(Nc2ccccn2)C(c2ccccn2)C(O)c2ccccc2)cc1 (centres unmarked) [Example 87]	0.84
CN(C)c1cccc2c(S(=O)(=O)Nc3ccccc3C(Nc3ccccn3)C(c3ccccn3)C(O)c3ccccc3)cccc12 (centres unmarked) [Example 89]	0.90
CC(=O)Nc1nc(C)c(S(=O)(=O)Nc2ccccc2C(Nc2ccccn2)C(c2ccccn2)C(O)c2ccccc2)s1 (centres unmarked) [Example 93]	1.10
CS(=O)(=O)c1ccc(S(=O)(=O)Nc2ccccc2C(Nc2ccccn2)C(c2ccccn2)C(O)c2ccccc2)cc1 (centres unmarked) [Example 94]	0.40

Further lines, results first:

IC50Na-TCDC (μmol) / IC50Na-compound (μmol)	Structure (SMILES)
1.06	N[C@@H](Cc1ccccc1)C(=O)N1CCC[C@H]1C(=O)Nc1ccccc1[C@@H](Nc1ccccn1)[C@H](c1ccccn1)[C@H](O)c1ccccc1 [Example 2c]
0.52	O=C(Cc1ccc(Cl)cc1)Nc1ccccc1[C@@H](Nc1ccccn1)[C@H](c1ccccn1)[C@H](O)c1ccccc1 [Example 33]
0.81	O=C(Cc1cccs1)Nc1ccccc1[C@@H](Nc1ccccn1)[C@H](c1ccccn1)[C@H](O)c1ccccc1 [Example 34]
0.36	O=C(CCC(=O)c1ccc(Cl)cc1)Nc1ccccc1[C@@H](Nc1ccccn1)[C@H](c1ccccn1)[C@H](O)c1ccccc1 [Example 36]
0.38	O=C(Cc1ccccc1C(F)(F)F)Nc1ccccc1[C@@H](Nc1ccccn1)[C@H](c1ccccn1)[C@H](O)c1ccccc1 [Example 38]
0.61	O=C(Cc1ccsc1)Nc1ccccc1[C@@H](Nc1ccccn1)[C@H](c1ccccn1)[C@H](O)c1ccccc1 [Example 41]
1.05	O=C(COc1ccc(F)cc1)Nc1ccccc1[C@@H](Nc1ccccn1)[C@H](c1ccccn1)[C@H](O)c1ccccc1 [Example 44]
1.03	Cc1ccccc1OCC(=O)Nc1ccccc1[C@@H](Nc1ccccn1)[C@H](c1ccccn1)[C@H](O)c1ccccc1 [Example 45]
1.00	O=C(CN1C(=O)c2ccccc2C1=O)Nc1ccccc1[C@@H](Nc1ccccn1)[C@H](c1ccccn1)[C@H](O)c1ccccc1 [Example 47]
0.46	O=C(/C=C/c1cccs1)Nc1ccccc1[C@@H](Nc1ccccn1)[C@H](c1ccccn1)[C@H](O)c1ccccc1 [Example 53]
1.15	O=C(CSc1ncccn1)Nc1ccccc1[C@@H](Nc1ccccn1)[C@H](c1ccccn1)[C@H](O)c1ccccc1 [Example 56]
0.79	CCOC(=O)/C=C/C(=O)Nc1ccccc1[C@@H](Nc1ccccn1)[C@H](c1ccccn1)[C@H](O)c1ccccc1 [Example 57]
0.66	Cc1ccnc(SCC(=O)Nc2ccccc2[C@@H](Nc2ccccn2)[C@H](c2ccccn2)[C@H](O)c2ccccc2)n1 [Example 61]
0.39	O=C(CNC(=O)OCc1ccccc1)Nc1ccccc1[C@@H](Nc1ccccn1)[C@H](c1ccccn1)[C@H](O)c1ccccc1 [Example 64]
0.84	O=[N+]([O-])c1ccccc1S(=O)(=O)Nc1ccccc1C(Nc1ccccn1)C(c1ccccn1)C(O)c1ccccc1 (centres unmarked) [Example 65]
0.92	O=C(O)c1ccc(S(=O)(=O)Nc2ccccc2C(Nc2ccccn2)C(c2ccccn2)C(O)c2ccccc2)cc1 (centres unmarked) [Example 91]
